Data taken from patent publication US20040122026A1, “Imidazolidine compounds” (Millennium Pharmaceuticals, Inc., priority 2002, published 2004).

Molecular target: T1, CXCR3 (Homo sapiens, UniProt P49682)
T1 construct: expressed in transfected cells; membrane preparation
T1 sequence (P49682 1-368): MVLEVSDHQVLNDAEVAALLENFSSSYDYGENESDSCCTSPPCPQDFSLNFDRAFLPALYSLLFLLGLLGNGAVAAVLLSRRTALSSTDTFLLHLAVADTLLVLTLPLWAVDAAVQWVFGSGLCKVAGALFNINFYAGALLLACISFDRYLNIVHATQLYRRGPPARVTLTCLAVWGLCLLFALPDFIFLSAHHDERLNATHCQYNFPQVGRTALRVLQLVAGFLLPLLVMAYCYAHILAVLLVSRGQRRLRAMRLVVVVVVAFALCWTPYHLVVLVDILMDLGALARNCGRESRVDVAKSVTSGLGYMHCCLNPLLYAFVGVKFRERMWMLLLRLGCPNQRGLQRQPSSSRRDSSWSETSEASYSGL
Assay: CXCR3/IP-10 radioligand binding (125I-IP-10 competition on CXCR3.L1/2 cell membranes)
Conditions: test compound 10 μmol/L; 125I-labeled IP-10 binding to CXCR3.L1/2 transfectant cell membranes; results Table 5
From the text: The activity of the compounds of the present invention can be assessed using a suitable assay, such as a receptor binding assay, a chemotaxis assay, an extracellular acidification assay or a calcium flux assay (see, for example, Hesselgesser et al., J. Biol. Chem., 273(25): 15687-15692 (1998) and WO 98/02151). For example, as described herein, small organic molecule antagonists of CXCR3/IP-10 binding have been identified utilizing cells engineered to express recombinant human CXCR3 (CXCR3.L1/2) and which bind ^125I-IP-10 and chemotax in response to IP-10, Mig, or I-TAC. Specifically, a high through-put receptor binding assay, which monitors ^125I-IP-10 biding to CXCR3.L1/2 cell membranes, was used to identify small molecule antagonists. Binding assays can be performed using other ligands of CXCR3, such as, Mig, and/or I-TAC.
CXCR3/IP-10 Radioligand Binding:
CXCR3.L1/2 Membrane Preparation:
CXCR3.L1/2 cells were pelleted by centrifugation and stored at −80° C. The cells were lysed by thawing and resuspending at about 1.5×10^7 cells/mL in a hypotonic buffer (5 mmol/L HEPES (pH 7.2), 2 mmol/L EDTA, 10 μg/mL each leupeptin, aprotinin, and chymostatin, and 100 μg/mL PMSF (all from Sigma, St. Louis)). Nuclei and cellular debris are removed by centrifugation ([…], at 4° C.) for 10 min. The supernatant was transferred to chilled centrifuge tubes (Nalge, Rochester, N.Y.) and the membrane fraction was recovered by centrifugation (25,000 g at 4° C.) for 45 min. The membrane pellet was resuspended in freezing buffer (10 mmol/L HEPES (pH 7.2), 300 mmol/L Sucrose, 5 μg/mL each of leupeptin, aprotinin, and chymostatin, and 10 μg/mL PMSF). The total protein concentration was determined using a coomassie blue staining protein concentration assay kit (BioRad). The membrane preparations are aliquoted and stored at −80° C. until time of use.
CXCR3/IP-10 binding was performed in 96-well polypropylene plates (Costar) in a final volume of 0.1 mL of HBB buffer (50 mmol/L Hepes pH 7.4, 1 mmol/L CaCl2, 5 mmol/L MgCl2, 0.02% sodium azide, 0.5% BSA (bovine serum albumin)), containing 1 to 5 μg CXCR3.L1/2 transfectant cell membrane protein and 0.05 to 0.2 nmol/L of ^125I-labeled IP-10 (NEN, Boston, Mass.). Competition binding experiments were performed by including variable concentrations of unlabeled IP-10 or test compound. Nonspecific binding was determined following the addition of a 250 nmol/L unlabelled IP-10. Samples were incubated for 60 min at room temperature, and bound and free tracer (^125I-labeled IP-10) were separated by filtration through 96-well GF/B filterplates presoaked in 0.3% polyethyleneimine. The filters were washed in HBB further supplemented with 0.5 mol/L NaCl, dried, and the amount of bound radioactivity determined by liquid scintillation counting. The competition is presented as the percent specific binding as calculated by 100×[(S−B)/(T−B)], where S is the radioactivity bound for each sample, B is background binding, and T is total bound in the absence of competitors. Duplicates were used throughout the experiments.

Row | inhibition at 10 µM | SMILES
1 | 92% | Cc1cc(C)cc(CN2CCN(CCC(=O)N(C)c3cccc(CN4CCCCC4)c3)C2=C(C#N)C#N)c1 [Compound 1, N-Methyl-N-[3-(piperidinomethyl)phenyl]-3-[3-(3,5-dimethylbenzyl)-2-dicyanomethylideneimidazolidin-1-yl]propionamide]
2 | 99% | CCCN(C(=O)CCN1CCN(Cc2cc(C)cc(C)c2)C1=C(C#N)C#N)c1cccc(CN2CCCCC2)c1 [Compound 2, N-Propyl-N-[3-(piperidinomethyl)phenyl]-3-[3-(3,5-dimethylbenzyl)-2-dicyanomethylideneimidazolidin-1-yl]propionamide]
3 | 106% | Cc1cc(C)cc(CN2CCN(CCC(=O)N(c3cccc(CN4CCCCC4)c3)C(C)C)C2=C(C#N)C#N)c1 [Compound 3, N-Isopropyl-N-[3-(piperidinomethyl)phenyl]-3-[3-(3,5-dimethylbenzyl)-2-dicyanomethylideneimidazolidin-1-yl]propionamide]
4 | 109% | Cc1cc(C)cc(CN2CCN(CCC(=O)N(c3cccc(CN4CCCCC4)c3)C3CCCCC3)C2=C(C#N)C#N)c1 [Compound 4, N-Cyclohexyl-N-[3-(piperidinomethyl)phenyl]-3-[3-(3,5-dimethylbenzyl)-2-dicyanomethylideneimidazolidin-1-yl]propionamide]
5 | 95% | Cc1cc(C)cc(CN2CCN(CCC(=O)N(Cc3ccccc3)c3cccc(CN4CCCCC4)c3)C2=C(C#N)C#N)c1 [Compound 5, N-Benzyl-N-[3-(piperidinomethyl)phenyl]-3-[3-(3,5-dimethylbenzyl)-2-dicyanomethylideneimidazolidin-1-yl]propionamide]
6 | 83% | Cc1cc(C)cc(CN2CCN(CCC(=O)N(CCO)c3cccc(CN4CCCCC4)c3)C2=C(C#N)C#N)c1 [Compound 7, N-(2-Hydroxyethyl)-N-[3-(piperidinomethyl)phenyl]-3-[3-(3,5-dimethylbenzyl)-2-dicyanomethylideneimidazolidin-1-yl]propionamide]
7 | 95% | CCOC(=O)CN(C(=O)CCN1CCN(Cc2cc(C)cc(C)c2)C1=C(C#N)C#N)c1cccc(CN2CCCCC2)c1 [Compound 8, N-Ethoxycarbonylmethyl-N-[3-(piperidinomethyl)phenyl]-3-[3-(3,5-dimethylbenzyl)-2-dicyanomethylideneimidazolidin-1-yl]propionamide]
8 | 83% | Cc1cc(C)cc(CN2CCN(CCC(=O)N(CC(=O)O)c3cccc(CN4CCCCC4)c3)C2=C(C#N)C#N)c1 [Compound 9, N-Carboxymethyl-N-[3-(piperidinomethyl)phenyl]-3-[3-(3,5-dimethylbenzyl)-2-dicyanomethylideneimidazolidin-1-yl]propionamide]
9 | 95% | Cc1cc(C)cc(CN2CCN(CCC(=O)N(CCCF)c3cccc(CN4CCCCC4)c3)C2=C(C#N)C#N)c1 [Compound 11, N-(3-Fluoropropyl)-N-[3-(piperidinomethyl)phenyl]-3-[3-(3,5-dimethylbenzyl)-2-dicyanomethylideneimidazolidin-1-yl]propionamide]
10 | 84% | Cc1cc(C)cc(CN2CCN(CCC(=O)N(CC(N)=O)c3cccc(CN4CCCCC4)c3)C2=C(C#N)C#N)c1 [Compound 12, N-Aminocarbonylmethyl-N-[3-(piperidinomethyl)phenyl]-3-[3-(3,5-dimethylbenzyl)-2-dicyanomethylideneimidazolidin-1-yl]propionamide]
11 | 67% | Cc1cc(C)cc(CN2CCN(CCC(=O)N(Cc3nnn[nH]3)c3cccc(CN4CCCCC4)c3)C2=C(C#N)C#N)c1 [Compound 13, N-(1H-tetrazol-5-ylmethyl)-N-[3-(piperidinomethyl)phenyl]-3-[3-(3,5-dimethylbenzyl)-2-dicyanomethylideneimidazolidin-1-yl]propionamide]

Row | SMILES | inhibition at 10 µM
12 | CC(=O)OCCN(C(=O)CCN1CCN(Cc2cc(C)cc(C)c2)C1=C(C#N)C#N)c1cccc(CN2CCCCC2)c1 [Compound 6, N-(2-Acetoxyethyl)-N-[3-(piperidinomethyl)phenyl]-3-[3-(3,5-dimethylbenzyl)-2-dicyanomethylideneimidazolidin-1-yl]propionamide] | 93%

Same assay, conditions: test compound 10 μmol/L; 125I-labeled IP-10 binding to CXCR3.L1/2 transfectant cell membranes; results Table 6

Row | SMILES | inhibition at 10 µM | % inhibition at 10 μmol/L
13 | Cc1cccc(CN2CCN(CCC(=O)N(c3cccc(CN4CCCCC4)c3)C(C)C)C2=C(C#N)C#N)c1C [Compound 14, N-Isopropyl-N-[3-(piperidinomethyl)phenyl]-3-[3-(2,3-dimethylbenzyl)-2-dicyanomethylideneimidazolidin-1-yl]propionamide] | 105% | –
14 | CC(C)N(C(=O)CCN1CCN(C2Cc3cccc4cccc2c34)C1=C(C#N)C#N)c1cccc(CN2CCCCC2)c1 (stereo not drawn) [Compound 15, N-Isopropyl-N-[3-(piperidinomethyl)phenyl]-3-[3-(1-acenaphthenyl)-2-dicyanomethylideneimidazolidin-1-yl]propionamide] | 95% | –
15 | CC(C)N(C(=O)CCN1CCN(Cc2cc(Cl)cc(Cl)c2)C1=C(C#N)C#N)c1cccc(CN2CCCCC2)c1 [Compound 17, N-Isopropyl-N-[3-(piperidinomethyl)phenyl]-3-[3-(3,5-dichlorobenzyl)-2-dicyanomethylideneimidazolidin-1-yl]propionamide] | 93% | –
16 | CCCN(C(=O)CCN1CCN(Cc2cc(Cl)cc(Cl)c2)C1=C(C#N)C#N)c1cc(CN2CCCCC2)ccc1C [Compound 18, N-Propyl-N-[2-methyl-5-(piperidinomethyl)phenyl]-3-[3-(3,5-dichlorobenzyl)-2-dicyanomethylideneimidazolidin-1-yl]propionamide] | 94% | –
17 | CCCN(C(=O)CCN1CCN(Cc2cc(Cl)cc(Cl)c2)C1=C(C#N)C#N)c1cc(CN2CCCCC2)ccc1Cl [Compound 19, N-Propyl-N-[2-chloro-5-(piperidinomethyl)phenyl]-3-[3-(3,5-dichlorobenzyl)-2-dicyanomethylideneimidazolidin-1-yl]propionamide] | 101% | –
18 | CCCN(C(=O)CCN1CCN(Cc2cc(Cl)cc(Cl)c2)C1=C(C#N)C#N)c1cccc(CN2CCCCC2)c1C [Compound 20, N-Propyl-N-[2-methyl-3-(piperidinomethyl)phenyl]-3-[3-(3,5-dichlorobenzyl)-2-dicyanomethylideneimidazolidin-1-yl]propionamide] | 68% | –
19 | CCCNCc1cccc(N(CC)C(=O)CCN2CCN(Cc3cc(C)cc(C)c3)C2=C(C#N)C#N)c1 [Compound 21, N-Ethyl-N-[3-(propylaminomethyl)phenyl]-3-[3-(3,5-dimethylbenzyl)-2-dicyanomethylideneimidazolidin-1-yl]propionamide] | 71% | –
20 | Cc1cc(C)cc(CN2CCN(CCC(=O)N(c3cccc(CN4CCOCC4)c3)C(C)C)C2=C(C#N)C#N)c1 [Compound 22, N-Isopropyl-N-[3-(morpholinomethyl)phenyl]-3-[3-(3,5-dimethylbenzyl)-2-dicyanomethylideneimidazolidin-1-yl]propionamide] | 93% | –
21 | Cc1cc(C)cc(CN2CCN(CCC(=O)N(c3cccc(CN4CCN(C)CC4)c3)C(C)C)C2=C(C#N)C#N)c1 [Compound 23, N-Isopropyl-N-[3-(4-methyl-1-piperazinylmethyl)phenyl]-3-[3-(3,5-dimethylbenzyl)-2-dicyanomethylideneimidazolidin-1-yl]propionamide] | – | 92%
